For one assay, the system named is normal melanocytes. As to the kind of experiment: Flow cytometry analysis of DNA content, normal melanocytes. Format: cell-based. Particulars: varying doses of 1-benzyl I3C, 48 hours. On the technique in general: A flow cytometer gives signals particle by particle.
A further assay deals with GSK3β and Axin. The assay is described as follows: Western blot of β-catenin destruction complex components. The class given is cell-based, human. Particulars: melanoma cell lines, 20 μM 1-benzyl I3C. The protocol:
(§1) Western Blot analyses of samples electrophoretically fractionated on 12% acrylamide gels were carried out as previously described (Wagle et al., J. Clin. Oncol. 2011. 29(22):3085-3096; Nguyen et al., Chem. Biol. Interact. 2010. 186(3):255-266). Enhanced chemiluminescence (ECL) Lightening reagents were used to visualize the primary antibody bound protein bands in nitrocellulose membranes and the results captured on ECL Autoradiography Film (GE Healthcare, Piscataway, N.J.). The western blots employed the following primary antibodies: mouse anti-MITF-M (Thermo-scientific), mouse anti-HSP 90 (BD Biosciences), mouse anti-CDK2, rabbit anti-CDK4, rabbit anti-CDK-6, mouse anti-rabbit BRAF, goat anti-LEF-1, rabbit anti-AXIN, mouse anti-BCL2, (Santa Cruz), rabbit anti-P21, mouse anti-Cyclin D1, rabbit anti-MEK-p, rabbit anti-MEK1/2, rabbit anti-GSK3β rabbit anti-LRP6, rabbit anti-LRP6-phospho (Cell signaling), mouse anti-β-catenin (Invitrogen).
(A western blot detects proteins with antibodies after separation by electrophoresis.)

The next assay relates to MITF-M transcript. The assay is described as follows: RT-PCR analysis of MITF-M transcripts. The class given is cell-based, human. Particulars: for MITF-M transcript levels: 200 μM I3C, 72 hour time course. The method, then: Total RNA was extracted from harvested cells using the RNeasy extraction kit for mammalian cells (obtained from Qiagen, Hercules, Calif.) and spectrophotometrically quantified by absorbance at 260 nm. Reverse transcription (RT) reactions were carried out using RT-MMLV reverse transcriptase (Invitrogen, Eugene, Oreg.) and the cDNA was used for polymerase chain reaction (PCR) reactions using 10 pM of the following primers: MITF-M forward 5′ CCGTCTCTCACTGGATTGGT 3′ (SEQ ID NO:1), MITF-M Reverse 5′ TACTTGGTGGGGTTTTCGAG 3′ (SEQ ID NO:2) GAPDH forward, […] (SEQ ID NO:3) and reverse, […] (SEQ ID NO:4). PCR conditions were as follows: 30 s at 94° C., 30 s at 55° C. and 30 s at 72° C. for 28 cycles. PCR products were electrophoretically fractionated in 1.5% agarose gels containing 0.01% Gel Red (Biotium) for DNA staining along with 1 kb plus DNA ladder (Thermo Scientific) and further visualized by a UV transilluminator.

For another assay, the system named is LRP5/6. As to the kind of experiment: Western blot of Wnt co-receptor. Conditions: melanoma cell lines, 20 μM 1-benzyl I3C. Format: cell-based, human. The method, then: as §1
The next assay concerns LEF1. The assay is described as follows: Chromatin immunoprecipitation, LEF1 at MITF-M promoter. Format: cell-based, human. Particulars: G361 cells, 20 μM 1-benzyl I3C, 48 hours.
For assay [1], the system named is 5 different melanoma cells lines. The assay is described as follows: CCK-8 proliferation assay, 5 melanoma cell lines with distinct mutation profiles. The class given is cell-based, human. Particulars: 20 μM 1-benzyl I3C, 200 μM I3C, 48 hours. The method, then:
The same treatment regime was repeated on multiple melanoma cell lines with 20 μM 1-benzyl I3C and 200 μM I3C for 48 hours to compare the relative sensitivities of the different cell lines with distinct mutation profiles to 1-benzyl I3C and I3C. Cells were treated with 20 μM 1-benzyl I3C every 24 hours for 72 hours and harvested at 24, 48 and 72 hours for western blot and flow cytometric analysis. Cells were treated with 20 μM LiCl or 10 μM BIO for 48 hours before harvesting them for western blots.
Subsequently inhibition of proliferation was assessed using Cell counting Kit-8 (Dojindo) as per the protocol in the user's manual. Briefly, 50 μl of the CCK-8 solution was added to each well along with 450 μl media and incubated for 2-3 hours. The absorbance was read at 450 nm and % inhibition was calculated for each condition standardizing DMSO to zero using the formula: [(100−Value of treatment/Value of DMSO treated control)×100]

In a further assay the test system is DM738 cells. As to the kind of experiment: Flow cytometry analysis of DNA content, DM738. Format: cell-based, human. Conditions: maximal dose of 200 μM I3C. The method, then:
(§2) Melanoma cells were treated with the indicated concentrations of 1-benzyl […] in triplicates every 24 hours and harvested at the end of 24, 48 or 72 hours for cell cycle analysis. The DNA content of propidium iodide stained nuclei from harvested cells were determined by flow cytometry. Briefly, cells were hypotonically lysed in […] of DNA staining solution (0.5 mg/mL propidium iodide, 0.1% sodium citrate, and 0.05% Triton-X 100). Emitted fluorescence from the nuclear of wavelengths more than 585 nm was measured with a Coulter Elite instrument with laser output adjusted to deliver 15 mW at 488 nm. Ten thousand nuclei were analyzed from each sample at a rate of 300-500 nuclei/second. The percentage of cells within the G1, S, and G2/M phases of the cell cycle were determined by analysis with the Multicycle computer program provided by Phoenix Flow Systems in the Cancer Research Laboratory Microchemical Facility of the University of California, Berkeley.

The next assay concerns phosphorylated Erk/MAPK. As to the kind of experiment: Immunofluorescence of tumor xenograft sections for ERK-p. The class given is in vivo, human. Particulars: I3C treated vs untreated animals. The method, then: Approximately 1 million G361 melanoma cells in a total volume of 0.1 ml of Matrigel were injected subcutaneously into each lateral flank of NIH III athymic nude mice. The resulting tumors were allowed to grow to a mean starting volume of 146±10 mm^3. The animals were then randomized into two groups; a vehicle control group that was treated with DMSO and an […] treated group that were injected daily with 200 mg/kg body weight of […]. The resulting tumor volumes were measured every other day for four weeks using calipers. The tumor volumes were calculated using the standard formula: […], and changes in tumor volumes were calculated using the formula: 100+{(Tf-Ti)/Ti×100}, where Tf is the final mean tumor volume and Ti is the initial mean tumor volume. At terminal sacrifice, tumor xenografts were harvested, and a portion of each tumor was fixed in 4% para-formaldehyde for 1 hour at room temperature, followed by a phosphate-buffered saline (PBS) wash and subsequently immersed in 3% sucrose overnight at 4° C. The resulting tissues were embedded in OCT and 10 μm thin sections were taken for immunofluorescence studies.

In another assay the test system is G361 cells. As to the kind of experiment: Flow cytometry analysis of DNA content, G361. Conditions: maximal dose of 200 μM I3C. The class given is cell-based, human. The protocol: as §2
In another assay the test system is SK-MEL-24 cells. As to the kind of experiment: CCK-8 proliferation assay, SK-MEL-24. The class given is cell-based, human. Conditions: 200 μM I3C, 72 hours; wild type BRAF. The method, then:
Subsequently inhibition of proliferation was assessed using Cell counting Kit-8 (Dojindo) as per the protocol in the user's manual. Briefly, 50 μl of the CCK-8 solution was added to each well along with 450 μl media and incubated for 2-3 hours. The absorbance was read at 450 nm and % inhibition was calculated for each condition standardizing DMSO to zero using the formula: [(100-Value of treatment/Value of DMSO treated control)×100]
(Formazan colour is commonly taken as a measure of viable cells.)

In the case of `OCc1cn(Cc2ccccc2)c2ccccc12` [1-benzyl I3C, 1-benzyl indole-3-carbinol], in the assay on normal melanocytes, the “G1 cell cycle arrest” value was “no comparable effect on normal melanocytes”. Moreover, the “GSK3β and Axin levels” value with GSK3β and Axin is recorded as “upregulation”. Moreover, the MITF-M transcript level result with MITF-M transcript (G-361, DM738, SK-MEL-2 cells, 1-benzyl I3C) is reported as “concomitant inhibition of MITF-M transcript level”. Moreover, the LRP5/6 levels result in the assay on LRP5/6 is listed as “significantly downregulated”. Also, in the assay on LEF1, the “LEF1 interactions with the MITF-M promoter” value is reported as “significantly disrupted nuclear LEF1 interactions with this promoter”. Besides, the “range of sensitivity across mutation profiles” value in assay [1] is “much wider range of sensitivity than I3C and Vemurafenib”.

In the case of `OCc1c[nH]c2ccccc12` [I3C, indole-3-carbinol], the “G1 cell cycle arrest” value in the assay with DM738 cells and in the assay on G361 cells was “significant G1 cell cycle arrest” in each case. For the same molecule, the MITF-M transcript levels result in the assay with MITF-M transcript (G-361 and DM738 cells) is “strongly down regulated MITF-M transcript levels”; with MITF-M transcript (SK-MEL-2 cells), “modest increase in MITF-M transcript levels”. Besides, the “level of phosphorylated Erk/MAPK in tumor xenografts” value with phosphorylated Erk/MAPK was “strongly down regulated”. Further, in the assay with SK-MEL-24 cells, the “sensitivity to anti-proliferative effects” value was “significantly less sensitive”.

The values are drawn from patent US20180369195A1, “COMBINATION THERAPY FOR TREATMENT OF MELANOMA” (The Regents of the University of California, priority 2015, published 2018).
